In patent US8518889B2, “Method of treating cancer with antibodies against long-form leukotriene B4 receptor BLT2” (Korea University Research & Business Foundation, priority 2007, dated 2013):

How the values were obtained:
SV-HUC-1 cells = experiment: cell cycle analysis (PI, flow cytometry); format: cell-based; details: 48 hr, RPMI 1640 with 0.5% FBS
Protocol: The cells grown in 6-well plate were stimulated with 5 μM and 10 μM LY255283, 1 μM U75302 for 48 h in RPMI 1640 containing 0.5% FBS. The cells which were collected by brief trypsinization were fixed overnight with 70% ethanol at 4° C. The cells were resuspended in PBS containing RNase A (100 μg/ml) and incubated for 30 min at 37° C. The cells were stained with propidium iodide (50 μg/ml) (Sigma). Acquisition and analysis was performed by FACS using Cell Quest Alias software (BD Bioscience). […] Cells were treated with BLT antagonist for 48 hours and the cell cycle population was measured by flow cytometry. In brief, cells were plated in 6 well plate and then treated with LY255283, U75302 for 48 hr. At the end of the treatment, the cells were harvested and then centrifuged. The cells fixed in ice-cold 70% ethanol for 24 hr and centrifuged. The pellet were resuspended in 0.5 ml phosphate-buffered saline (PBS) and incubated with Pl 1 mg/ml treatment for 15 min.

LNCaP cells [1] = format: cell-based, human; details: 5 μM, 48 hr
Protocol: DNA fragmentation was shown by the harvesting of total cellular DNA. Cells were grown in 10 cm plates to 70% confluence with 10% FBS-supplemented medium. Then the media was replaced with serum free RPMI 1640 and the cells were treated with 5 μM LY255283 for 48 hr. Cellular DNA from cells was extracted incubating with lysis buffer (1 mM EDTA, 10 mM Tris, 120 mM NaCl, 1% SDS and 100 μg/ml proteinase K, pH 8.0) for 12 hr at 50° C. The lysate was centrifuged for 10 min at 13,000×g to separate the fragment DNA. The supernatant was then extracted twice with phenol/chloroform/isoamyl alcohol and precipitated with absolute ethanol. […] After electrophoresis, gels were stained with ethidium bromide, and the DNA was visualized by UV light.

LNCaP cells [2] = experiment: cell counting with trypan blue; format: cell-based, human; details: 1 μM and 5 μM, serum free RPMI 1640
Protocol: The effect of LY255283 was observed by counting of cell number. The cells were grown in 6-well cluster dishes to 70% confluence with 10% FBS-supplemented medium. At day 0, the medium was replaced with serum free RPMI 1640 and cells were stimulated with DMSO or 1 μM and 5 μM LY255283. The cells were harvested at various intervals. Cells were washed with PBS and collected by brief trypsinization. Total cell number was determined by counting each sample in duplicate with a hemocytometer using trypan blue dye. The cells treated with LY255283 in serum free RPM11640 were harvested at various intervals. […] In contrast, PWR-1 E cells which expressed few level of BLT2 were not affected by LY255283.

[3] = test system: 253J-BV bladder cancer cell; experiment: mitochondrial membrane potential (JC-1, flow cytometry); format: cell-based, human; details: 48 hr
Protocol: Mitochondrial damage is important to the apoptosis affected by the caspase-9 pathway. To evaluate the effect of LY255283 on the mitochondria membrane potential (MMP), cell were pretreated with the fluorescent mitochondria specific cationic dye, JC-1, and changes in membrane potential were measured by flow cytometry. Cells grown in 6 well-plates for 24 hr washed PBS and incubated in RPMI 1640 with 0.5% FBS containing different concentrations of LY255283 and U75302 for 48 hr. After cells were treated with 5 μg/ml of JC-1 for 30 min. Then removal of JC-1, washed with PBS, harvested by trypsinization, and resuspended in PBS. Sample was measured at 530 nm (FL-1 green) and 590 nm (FL-2 red) using a flow cytometry. […] And because of the loss of mitochondrial membrane potential in a LY255283 treated cells, it was speculated that caspase may play an essential role in the process of apoptosis.

[4] = test system: 253J-BV cell (bladder cancer cell); experiment: morphological changes by light microscopy; format: cell-based, human; details: 1-10 μM, 48 hr
Protocol: Bladder cancer cells grown in 6 well-plate were treated with 10 μM LY255283, 1 uM U75302 for 48 hr. Cells were then viewed using light microscopy (×100). SV-HUC-1 cell (normal bladder cell) and 253J-BV cell (bladder cancer cell) were treated with different concentrations (1-10 μM) of LY255283 (BLT2 specific antagonist), U75302 (BLT1 specific antagonist) for 48 hr. […] But normal bladder cell line was not effect on morphological change treated with BLT antagonists.

PWR-1E cells = experiment: MTT assay, cell viability; format: cell-based; details: increasing concentration, 48 hr, serum free RPMI 1640
Protocol: The effect of LY255283, BLT2 antagonist, on cell viability was examined by MTT assay. PWR-1E cells were seeded at a density of 1.0×10^4 cells/well and LNCaP cells were seeded at a density of 1.5×10^4 cells/well in 96-well culture dishes. After 36 hr, the medium was replaced with serum free RPMI 1640 and cells were stimulated with DMSO or LY255283 of increasing concentration. MTT (1 mg/mu) was added at 48 hr after LY255283 treatment and after 4 hr of further incubation the medium was replaced with DMSO. Then cells were incubated at room temperature for 10 min. The spectrophotometric absorbance of the samples was determined by using Ultra Multifunctional Microplate Reader at 540 nm. LNCaP cells and PWR-1E cells were stimulated with LY255283 of various concentration in serum free RPM11640.

LNCaP cells [5] = experiment: cell cycle analysis (PI, flow cytometry); format: cell-based, human; details: 5 μM, 48 hr
Protocol: After LNCaP cells and PWR-1E cells were treated with 5 μM LY255283 for 48 hr, the cells were fixed with 70% ethanol and stained with Pl. Cell cycle was analyzed using flow cytometry. The cells grown in 6-well cluster dishes were stimulated with 5 μM LY255283 for 48 h in serum free RPMI 1640. The cells which were collected by brief trypsinization were fixed for 12 hr with 70% ethanol at 4° C. The cells were resuspended in PBS containing RNase A (100 μg/ml) and incubated for 30 min at 37° C. The cells were stained with propidium iodide (50 μg/ml) (Sigma). Acquisition and analysis was performed by FACS using Cell Quest Alias software (BD Bioscience).

Row | SMILES | cell cycle (SV-HUC-1 cells) | DNA fragmentation (LNCaP cells [1]) | number of LNCaP cells (LNCaP cells [2]) | mitochondria potential ([3]; 10 μM) | increase of green fluorescence (FL-1) compare with control cells ([3]; JC-1, 10 μM) | morphological change [4] | PWR-1E cell viability (MTT) (PWR-1E cells) | sub-G1 population (LNCaP cells [5])
1 | CCCCC/C=C\C[C@@H](O)/C=C/c1cccc(C[C@@H](O)CCCCO)n1 [U75302] | not effect |  |  |  |  |  |  | 
2 | CCc1cc(C(C)=O)c(O)cc1OCCCCCC(C)(C)c1nnn[nH]1 [LY255283, 1-[5-ethyl-2-hydroxy-4-[[6-methyl-6-(1H-tetrazol-5-yl)heptyl]oxy]phenyl]-ethanone] |  | A smear of different sizes of DNA fragments was observed | significantly reduced | drop in mitochondria potential | about 2.5 fold | exhibited membrane blebbing, detached from plate | no effect | increased population of cells with sub-GI DNA content
